Data published in US20230115907A1, “HETEROCYCLIC COMPOUND AND PHARMACEUTICAL COMPOSITION, PREPARATION METHOD, INTERMEDIATE AND USE THEREOF” (EVOPOINT BIOSCIENCES CO., LTD., priority 2019, published 2023).
Blank lines part the entries; values can stand above or below the compound they belong to.

Tests used:
[1] = biological target: CDK7/Cyclin H/MAT1 (Homo sapiens, UniProt P50613); test: CDK7 inhibition, mobility shift assay
[2] = system: HCC70 cells; test: Inhibition of cell proliferation, CellTiter-Glo, HCC70; type: cell-based; conditions: Homo sapiens, HCC70, 72 h
Protocol: (§1) The compounds were each prepared with 100% DMSO into 10 mM mother liquor.
(§2) HCC70 cells and OVCAR3 cells were digested and counted. Cells were diluted to an appropriate concentration according to cell density. 100 μL of cells were added to each well of a 96-well plate. Medium wells served as blank control (Min). The cells were incubated overnight in an incubator at 37° C./5% CO2.
(§3) A 200-fold stock solution of a compound was prepared with DMSO, and the compound was diluted with growth medium to a 3-fold stock solution, i.e., […] of each of 200-fold stock solutions of compound at different concentrations was added to 197 μL of medium. 50 μL of diluted compound was added to each well and the mixture was incubated at 37° C./5% CO2 for 72 h.
(§4) The 96-well plate was equilibrated to room temperature before detection. 40 μL of CellTiter-Glo solution was added to each well. The mixture was mixed for 2 min using a horizontal shaker to induce cell lysis. The mixture was incubated at room temperature for 60 min to stabilize […] signals. Fluorescence values were read on ENVISION.
(§5) (1) Data was analyzed by GraphPad Prism 5
(§6) (2) % inhibition rate=(maximum signal−compound signal)/(maximum signal−minimum signal)×100
(§7) (3) Maximum signal: signal of DMSO well
(§8) (4) Minimum signal: signal of medium well
(§9) The effect of SZ-015200, SZ-015256 and SZ-015268 on cell proliferation after incubation with HCC70, OVCAR-3, HCT116 and HCC1806 cells for 3 days was detected according to the method described in Efficacy Example 2, and the results are shown in Table 3.

[3] = system: OVCAR3 cells; test: Inhibition of cell proliferation, CellTiter-Glo, OVCAR3; type: cell-based; conditions: Homo sapiens, OVCAR-3, 72 h
Protocol: as §1, §2, §3, §4, §5, §6, §7, §8, §9

[4] = system: HCT116 cells; test: Inhibition of cell proliferation, CellTiter-Glo, HCT116; type: cell-based; conditions: Homo sapiens, HCT-116, 72 h; Efficacy Example 3 (Table 3), incubation for 3 days
Protocol: as §2, §3, §4, §6, §9

[5] = In vivo pharmacokinetics after intragastric administration in mice; conditions: single intragastric administration, 20 mg/kg; for AUC(0-inf) / AUC(0-t) / Cmax / Tmax / half-life: male, ICR, mouse, po, plasma; for Cmax and AUC compared with the control compound SZ-015200: in words
Protocol: (§10) Male 1CR mice were divided into different groups with 3 mice in each group, and single intragastric administration was conducted for each group. The compounds were each formulated with 10% DMSO/10% Solutol/80% (2000 Captisol) to reach an appropriate concentration and then administered intragastrically at 20 mg/kg. Blood was taken 5 min, 15 min, 30 min, 1 h, 2 h, 4 h, 6 h, 8 h and 24 h after administration, and then subjected to EDTA-K2 anticoagulation. The concentration of the compound in the plasma was quantitatively detected by an LC-MS/MS method.

[6] = In vivo pharmacokinetics after intragastric administration in rats; design: species or system SD rats; conditions: single intragastric administration, 40 mg/kg; for AUC(0-inf) / AUC(0-t) / Cmax / Tmax / half-life: male, SD, rat, po, plasma; for Cmax and AUC compared with the control compound SZ-015200: in words
Protocol: as §10, with “SD rats” for “1CR mice”, “rats” for “mice”, “(20%” for “(2000”, “40” for “20”

[7] = system: human colon cancer cells HCT116 xenograft tumor; test: In vivo efficacy in subcutaneous xenograft tumor model of human colon cancer cells HCT116; design: species or system BALB/c nude mice; conditions: for Tumor inhibition rate (TGI): day 21; for % proliferation percentage of tumor volume (Day 21 after grouping) / Tumor volume (day 21 after grouping): mean value ± standard error; for Effect on inhibiting tumor proliferation compared with the control compound SZ-015200 (in words): HCT116 xenograft, p.o. QD × 21 days; for Anti-tumor effect (in words): SZ-015256: 25 mg/kg and 15 mg/kg treatment groups, SZ-015268 and SZ-015200: 25 mg/kg treatment group
Protocol: HCT116 tumor cells used in this test were purchased from ATCC. HCT116 tumor cells were cultured in McCoy's 5a medium containing inactivated 10% fetal bovine serum, 100 U/mL penicillin, 100 μg/mL streptomycin and 2 mM glutamine in an incubator at 37° C./5% CO2. The cells were divided and transferred to other bottles every 3 to 4 days for passaging when the culture bottle was full of cells. The tumor cells in the logarithmic growth phase were used for tumor seeding in vivo.
HCT116 tumor cells resuspended in serum-free McCoy's 5a culture solution were seeded subcutaneously into the right costal part of male BALB/c nude mice at 5×10^6/0.1 mL. When the tumor grew to 101 mm^3, animals with uniform tumor volume were selected and divided into groups with 8 animals in each group for administration, and the specific administration regimens are shown in Table 6 below.
Tumor volume: the long and short diameters of the tumor were measured twice every week using a vernier caliper for calculating the tumor volume, and the calculation formula was:
volume=0.5×long diameter×short diameter^2.
[…]=mean value of relative tumor volume of treatment group/mean value of relative tumor volume of control group×100
Tumor growth inhibition rate(TGI,%)=(1−T/C)×100
Statistical analysis between groups was performed for tumor volume using One-Way ANOVA test, and a significant difference was considered to be present when p<0.05.

[8] = system: HCC1806 cells; test: Inhibition of cell proliferation, CellTiter-Glo, HCC1806; type: cell-based; conditions: Homo sapiens, HCC1806, 72 h; Efficacy Example 3 (Table 3), incubation for 3 days
Protocol: as §2, §3, §4, §6, §9

[9] = Efficacy Example 2 (Table 2), 72 h incubation
[10] = Efficacy Example 3 (Table 3), incubation for 3 days

CDK7/Cyclin H/MAT1, sequence (P50613 whole entry): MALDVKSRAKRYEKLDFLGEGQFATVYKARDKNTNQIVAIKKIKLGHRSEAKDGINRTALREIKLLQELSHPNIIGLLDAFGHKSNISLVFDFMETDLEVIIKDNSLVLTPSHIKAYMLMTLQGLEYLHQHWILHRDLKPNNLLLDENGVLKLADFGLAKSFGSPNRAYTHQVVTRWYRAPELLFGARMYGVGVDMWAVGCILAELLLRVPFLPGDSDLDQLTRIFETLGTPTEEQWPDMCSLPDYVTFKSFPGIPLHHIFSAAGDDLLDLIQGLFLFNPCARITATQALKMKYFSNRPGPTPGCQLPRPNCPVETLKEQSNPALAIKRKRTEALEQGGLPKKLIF
CDK7/Cyclin H/MAT1, sequence (P51946 whole entry partner): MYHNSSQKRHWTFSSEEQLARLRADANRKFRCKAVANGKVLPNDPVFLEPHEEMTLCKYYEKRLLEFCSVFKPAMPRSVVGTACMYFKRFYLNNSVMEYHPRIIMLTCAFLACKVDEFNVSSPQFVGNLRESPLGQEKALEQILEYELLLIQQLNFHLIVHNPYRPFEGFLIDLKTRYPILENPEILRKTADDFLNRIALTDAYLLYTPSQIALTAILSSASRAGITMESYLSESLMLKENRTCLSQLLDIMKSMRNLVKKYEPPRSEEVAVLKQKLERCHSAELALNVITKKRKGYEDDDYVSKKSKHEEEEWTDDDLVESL
CDK7/Cyclin H/MAT1, sequence (P51948 whole entry partner): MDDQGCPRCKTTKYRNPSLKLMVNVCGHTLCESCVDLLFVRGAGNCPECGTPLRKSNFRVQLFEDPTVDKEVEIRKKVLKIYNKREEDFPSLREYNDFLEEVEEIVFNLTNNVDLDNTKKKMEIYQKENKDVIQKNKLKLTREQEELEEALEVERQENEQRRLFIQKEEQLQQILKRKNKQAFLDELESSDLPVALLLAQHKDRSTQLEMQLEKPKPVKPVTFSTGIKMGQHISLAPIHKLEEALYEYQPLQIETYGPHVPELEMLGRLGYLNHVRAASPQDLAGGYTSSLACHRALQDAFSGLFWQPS

IC50 [1]: 0.128 µM
IC50 [3, 9]: 0.138 µM
SMILES: Cc1cc(NC2CCN(C(=O)O[C@H]3CCN(C(=O)/C=C/CN(C)C)C3)CC2)c2ncn(C(C)C)c2n1 [SZ-015095, (S,E)-1-(4-(dimethylamino)but-2-enoyl)pyrrolidin-3-yl 4-((3-isopropyl-5-methyl-3H-imidazo[4,5-b]pyridin-7-yl)amino)piperidine-1-carboxylate]
IC50 [2, 9]: 0.479 µM

IC50 [4]: 0.0253 µM
AUC(0-inf) [5]: 6380 ng·h/mL
AUC(0-t) [5]: 6260 ng·h/mL
Cmax [5]: 3380 ng/mL
Tmax [5]: 0.5 h
half-life [5]: 1.48 h
Cmax and AUC compared with the control compound SZ-015200 [5]: significantly higher
IC50 [1]: 0.0543 µM
AUC(0-inf) [6]: 7880 ng·h/mL
AUC(0-t) [6]: 7830 ng·h/mL
Cmax [6]: 783 ng/mL
Tmax [6]: 4.67 h
half-life [6]: 2.99 h
IC50 [8]: 0.0445 µM
IC50 [3, 9]: 0.0751 µM
IC50 [3, 10]: 0.0453 µM
SMILES: Cc1nc(NC2CCN(C(=O)O[C@H]3CCN(C(=O)/C=C/CN(C)C)C3)CC2)n2ncc(C(C)C)c2n1 [SZ-015256, (S,E)-1-(4-(dimethylamino)but-2-enoyl)pyrrolidin-3-yl 4-((8-isopropyl-2-methylpyrazolo[1,5-a][1,3,5]triazin-4-yl)amino)piperidine-1-carboxylate]
Cmax and AUC compared with the control compound SZ-015200 [6]: The results show that compared with the control compound SZ-015200, the Cmax and the AUC of SZ-015256 and SZ-015268 in rats after single intragastric administration were significantly higher, which indicates that SZ-015256 and SZ-015268 have better pharmacokinetic properties.
IC50 [2, 9]: 0.175 µM
IC50 [2, 10]: 0.0508 µM
Tumor inhibition rate (TGI) ([7]; 15 mg/kg p.o. QD × 21 days): 61.6%
% proliferation percentage of tumor volume (Day 21 after grouping) ([7]; 15 mg/kg p.o. QD × 21 days): 407 ± 40%
Tumor volume (day 21 after grouping) ([7]; 15 mg/kg p.o. QD × 21 days): 402 ± 42 mm^3
Tumor inhibition rate (TGI) ([7]; 25 mg/kg p.o. QD × 21 days): 81.9%
% proliferation percentage of tumor volume (Day 21 after grouping) ([7]; 25 mg/kg p.o. QD × 21 days): 192 ± 38%
Tumor volume (day 21 after grouping) ([7]; 25 mg/kg p.o. QD × 21 days): 201 ± 43 mm^3
Effect on inhibiting tumor proliferation compared with the control compound SZ-015200 (in words) [7]: stronger effect on inhibiting tumor proliferation
Anti-tumor effect (in words) [7]: significant anti-tumor effect

IC50 [4]: 0.0125 µM
AUC(0-inf) [5]: 3150 ng·h/mL
AUC(0-t) [5]: 3100 ng·h/mL
Cmax [5]: 1540 ng/mL
Tmax [5]: 0.42 h
half-life [5]: 1.39 h
Cmax and AUC compared with the control compound SZ-015200 [5]: not lower
AUC(0-inf) [6]: 4510 ng·h/mL
AUC(0-t) [6]: 4450 ng·h/mL
Cmax [6]: 543 ng/mL
Tmax [6]: 4 h
half-life [6]: 3.92 h
IC50 [8]: 0.0616 µM
IC50 [3, 9]: 0.0299 µM
IC50 [3, 10]: 0.0806 µM
SMILES: Cc1nc(NC2CCN(C(=O)O[C@H]3CCN(C(=O)/C=C/CN(C)C)C3)CC2)c2ncc(C(C)C)n2n1 [SZ-015268, (S,E)-1-(4-(dimethylamino)but-2-enoyl)pyrrolidin-3-yl 4-((7-isopropyl-2-methylimidazo[2,1-f][1,2,4]triazin-4-yl)amino)piperidin-1-carboxylate]
Cmax and AUC compared with the control compound SZ-015200 [6]: The results show that compared with the control compound SZ-015200, the Cmax and the AUC of SZ-015256 and SZ-015268 in rats after single intragastric administration were significantly higher, which indicates that SZ-015256 and SZ-015268 have better pharmacokinetic properties.
IC50 [2, 9]: 0.0575 µM
IC50 [2, 10]: 0.033 µM
Tumor inhibition rate (TGI) ([7]; 25 mg/kg p.o. QD × 21 days): 84.3%
% proliferation percentage of tumor volume (Day 21 after grouping) ([7]; 25 mg/kg p.o. QD × 21 days): 167 ± 39%
Tumor volume (day 21 after grouping) ([7]; 25 mg/kg p.o. QD × 21 days): 172 ± 41 mm^3
Effect on inhibiting tumor proliferation compared with the control compound SZ-015200 (in words) [7]: stronger effect on inhibiting tumor proliferation
Anti-tumor effect (in words) [7]: significant anti-tumor effect

IC50 [1]: 0.0236 µM
SMILES: Cc1nc(NC2CCN(C(=O)O[C@H]3CCN(C(=O)/C=C/CN(C)C)C3)CC2)c2ncc(C(C)C)n2n1 [SZ-0015268]

IC50 [1]: 0.278 µM
IC50 [3, 9]: 0.46 µM
SMILES: Cc1cc2c(ncn2C(C)C)c(NC2CCN(C(=O)O[C@H]3CCN(C(=O)/C=C/CN(C)C)C3)CC2)n1 [SZ-015272, (S,E)-1-(4-(dimethylamino)but-2-enoyl)pyrrolidin-3-yl 4-((1-isopropyl-6-methyl-1H-imidazo[4,5-c]pyridin-4-yl)amino)piperidine-1-carboxylate]
IC50 [2, 9]: 0.948 µM

IC50 [1]: 0.0445 µM
IC50 [3, 9]: 0.0319 µM
SMILES: Cc1cc(NC2CCN(C(=O)O[C@H]3CCN(C(=O)/C=C/CN(C)C)C3)CC2)c2ncc(C(C)C)n2n1 [SZ-015273, (S,E)-1-(4-(dimethylamino)but-2-enoyl)pyrrolidin-3-yl 4-((3-isopropyl-6-methylimidazo[1,2-b]pyridazin-8-yl)amino)piperidin-1-carboxylate]
IC50 [2, 9]: 0.291 µM

IC50 [1]: 0.197 µM
IC50 [3, 9]: 0.151 µM
SMILES: Cc1cn2c(C(C)C)cnc2c(NC2CCN(C(=O)O[C@H]3CCN(C(=O)/C=C/CN(C)C)C3)CC2)n1 [SZ-015274]
IC50 [2, 9]: 0.187 µM

IC50 [3, 9]: 0.0297 µM
SMILES: CC(C)c1cnc2c(NC3CCN(C(=O)O[C@H]4CCN(C(=O)/C=C/CN(C)C)C4)CC3)nc(C3CC3)nn12 [SZ-015338, (S,E)-1-(4-(dimethylamino)but-2-enoyl)pyrrolidin-3-yl 4-((2-cyclopropyl-7-isopropylimidazo[2,1-f][1,2,4]triazin-4-yl)amino)piperidine-1-carboxylate]
IC50 [2, 9]: 0.0487 µM

IC50 [3, 9]: 0.0643 µM
SMILES: CC(C)c1nc(NC2CCN(C(=O)O[C@H]3CCN(C(=O)/C=C/CN(C)C)C3)CC2)c2ncc(C(C)C)n2n1 [SZ-015339, (S,E)-1-(4-(dimethylamino)but-2-enoyl)pyrrolidin-3-yl 4-((2,7-diisopropylimidazo[2,1-f][1,2,4]triazin-4-yl)amino)piperidine-1-carboxylate]
IC50 [2, 9]: 0.0547 µM

IC50 [3, 9]: 0.204 µM
SMILES: CC(C)c1cn2c(C(C)C)cnc2c(NC2CCN(C(=O)O[C@H]3CCN(C(=O)/C=C/CN(C)C)C3)CC2)n1 [SZ-015342, (S,E)-1-(4-(dimethylamino)but-2-enoyl)pyrrolidin-3-yl 4-((3,6-diisopropylimidazo[1,2-a]pyrazin-8-yl)amino)piperidine-1-carboxylate]
IC50 [2, 9]: 0.419 µM

IC50 [3, 9]: 0.0488 µM
SMILES: CC(C)Oc1nc(NC2CCN(C(=O)O[C@H]3CCN(C(=O)/C=C/CN(C)C)C3)CC2)c2ncc(C(C)C)n2n1 [SZ-015346, (S,E)-1-(4-(dimethylamino)but-2-enoyl)pyrrolidin-3-yl 4-((2-isopropoxy-7-isopropylimidazo[2,1-f][1,2,4]triazin-4-yl)amino)piperidine-1-carboxylate]
IC50 [2, 9]: 0.14 µM
